Measured values as given in ChEMBL document CHEMBL1201862, “PubChem BioAssay data set” (2004).
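Compound exposure: 48 hours, 5 concentrations, 96-well plates. Here, GI50 denotes the concentration required for 50% inhibition of growth.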 Calls of active or inactive are those of the source. Cut-off read from the data, not from the text of the source: active = GI50 up to about 1.1 µM and inactive = higher.

Key:
Experiment in all cases: DTP human tumour cell line panel, 48 h
OVCAR-4 = test system: OVCAR-4
MDA-MB-231 = test system: MDA-MB-231
OVCAR-3 = test system: OVCAR-3
HCC 2998 = test system: HCC 2998
KM12 = test system: KM12
U-251 = test system: U-251
SF-539 = test system: SF-539
COLO 205 = test system: COLO 205
HCT-15 = test system: HCT-15
CAKI-1 = test system: CAKI-1
Malme-3M = test system: Malme-3M
786-0 = test system: 786-0
TK-10 = test system: TK-10
NCI-H460 = test system: NCI-H460
HOP-62 = test system: HOP-62
SK-MEL-2 = test system: SK-MEL-2
SNB-19 = test system: SNB-19
K562 = test system: K562
IGROV-1 = test system: IGROV-1
OVCAR-8 = test system: OVCAR-8

| Compound | GI50 (OVCAR-4) | GI50 (MDA-MB-231) | GI50 (OVCAR-3) | GI50 (HCC 2998) | GI50 (KM12) | GI50 (U-251) | GI50 (SF-539) | GI50 (COLO 205) | GI50 (HCT-15) [µM] | GI50 (CAKI-1) | GI50 (Malme-3M) | GI50 (786-0) | GI50 (TK-10) | GI50 (NCI-H460) | GI50 (HOP-62) | GI50 (SK-MEL-2) | GI50 (SNB-19) | GI50 (K562) | GI50 (IGROV-1) | GI50 (OVCAR-8) |
| --- | --- | --- | --- | --- | --- | --- | --- | --- | --- | --- | --- | --- | --- | --- | --- | --- | --- | --- | --- | --- |
| CC(C)(C)c1ccc(OCC(=O)O)c(Cl)c1 | > 100 µM (inactive) | > 100 µM (inactive) | 60.4 µM (inactive) | > 100 µM (inactive) | > 100 µM (inactive) | > 100 µM (inactive) | > 100 µM (inactive) | > 100 µM (inactive) | > 100 | > 100 µM (inactive) | > 100 µM (inactive) | > 100 µM (inactive) | > 100 µM (inactive) | > 100 µM (inactive) | > 100 µM (inactive) | > 100 µM (inactive) | > 100 µM (inactive) | > 100 µM (inactive) | > 100 µM (inactive) | > 100 µM (inactive) |
| CN1C2CCC1C(C(O)c1ccccc1[N+](=O)[O-])C(=O)C2 (stereo not given) | 77.3 µM (inactive) | 64 µM (inactive) | 34.7 µM (inactive) | > 100 µM (inactive) | 36.5 µM (inactive) | > 100 µM (inactive) | 29.8 µM (inactive) | 34.6 µM (inactive) | 19.5 | 38.4 µM (inactive) | > 100 µM (inactive) | 44 µM (inactive) | > 100 µM (inactive) | > 100 µM (inactive) | 45.3 µM (inactive) | > 100 µM (inactive) | > 100 µM (inactive) | 32.1 µM (inactive) | 24.9 µM (inactive) | 31.6 µM (inactive) |
| CCOP(=O)(OCC)/C(C#N)=C\c1cccc2ccccc12 | > 75.3 µM (inactive) | 40.6 µM (inactive) | > 55.7 µM (inactive) | > 58.5 µM (inactive) | > 74.8 µM (inactive) | > 67.5 µM (inactive) | > 56 µM (inactive) | 91.8 µM (inactive) | 42.7 | 74.3 µM (inactive) | 42.7 µM (inactive) | > 71.4 µM (inactive) | > 100 µM (inactive) | > 91.8 µM (inactive) | > 56.6 µM (inactive) | > 62.1 µM (inactive) | > 57.1 µM (inactive) | 31 µM (inactive) | > 82.4 µM (inactive) | > 45.7 µM (inactive) |
| CC(=O)c1[nH]c(Nc2ccc(C)cc2)c(C(=S)Nc2ccccc2)c1N | 17.5 µM (inactive) | 16.5 µM (inactive) | 15.2 µM (inactive) | 18.6 µM (inactive) | 15.9 µM (inactive) | 14.4 µM (inactive) | 29.2 µM (inactive) | 23.9 µM (inactive) | 18.3 | 16.9 µM (inactive) | 17.1 µM (inactive) | 17.7 µM (inactive) | 17.3 µM (inactive) | 15.7 µM (inactive) | 20.8 µM (inactive) | 15.5 µM (inactive) | 16.8 µM (inactive) | 9.31 µM (inactive) | 16.8 µM (inactive) | 18.1 µM (inactive) |
| CN1CCN(C(=O)CCC(=O)Nc2cc3c(c4ccccc24)-c2ccc4ccccc4c2C3)CC1 | 1.5 µM (inactive) | 1.26 µM (inactive) | 1.63 µM (inactive) | 1.37 µM (inactive) | 1.55 µM (inactive) | 2.04 µM (inactive) | 1.73 µM (inactive) | 1.6 µM (inactive) | 1.82 | 1.53 µM (inactive) | 2.03 µM (inactive) | 1.69 µM (inactive) | 1.73 µM (inactive) | 1.82 µM (inactive) | 1.69 µM (inactive) | 1.97 µM (inactive) | 2.14 µM (inactive) | 1.91 µM (inactive) | 1.15 µM (inactive) | 2.18 µM (inactive) |
| CC12ON(P(=O)(c3ccccc3)c3ccccc3)C(C)(c3ccccc31)c1ccccc12 | 21.5 µM (inactive) | > 100 µM (inactive) | > 100 µM (inactive) | > 100 µM (inactive) | > 100 µM (inactive) | > 100 µM (inactive) | > 100 µM (inactive) | > 100 µM (inactive) | > 100 | > 100 µM (inactive) | > 100 µM (inactive) | > 100 µM (inactive) | > 100 µM (inactive) | 67.5 µM (inactive) | > 100 µM (inactive) | > 100 µM (inactive) | > 100 µM (inactive) | 88.3 µM (inactive) | > 100 µM (inactive) | > 100 µM (inactive) |
| CCOC(=O)CC[C@H](NC(=O)[C@H](N)Cc1ccc(N(CCCl)CCCl)cc1)C(=O)OCC | 13.1 µM (inactive) | 29.4 µM (inactive) | 8.28 µM (inactive) | 18.3 µM (inactive) | 16 µM (inactive) | 16.8 µM (inactive) | 9.66 µM (inactive) | 20.7 µM (inactive) | 18.1 | 4.65 µM (inactive) | 3.61 µM (inactive) | 9.55 µM (inactive) | > 54.5 µM (inactive) | 2.61 µM (inactive) | 21.6 µM (inactive) | 29.4 µM (inactive) | 27.6 µM (inactive) | 22.6 µM (inactive) | 40.6 µM (inactive) | 10.6 µM (inactive) |
| CC1(C)C(=O)C(C)(C)C12SSC1(S2)C(C)(C)C(=O)C1(C)C | > 100 µM (inactive) | > 100 µM (inactive) | > 100 µM (inactive) | > 100 µM (inactive) | > 100 µM (inactive) | > 100 µM (inactive) | > 100 µM (inactive) | 67 µM (inactive) | > 100 | > 100 µM (inactive) | 48.2 µM (inactive) | > 100 µM (inactive) | > 100 µM (inactive) | > 100 µM (inactive) | > 100 µM (inactive) | > 100 µM (inactive) | > 100 µM (inactive) | > 100 µM (inactive) | > 100 µM (inactive) | > 100 µM (inactive) |
| COC(=O)CC1(O)C(/C=C/c2ccccc2)C(C(=O)OC)C(=O)C(C(=O)OC)C1C(=O)OC (stereo not given) | > 100 µM (inactive) | > 100 µM (inactive) | > 100 µM (inactive) | > 100 µM (inactive) | > 100 µM (inactive) | 79.3 µM (inactive) | > 100 µM (inactive) | > 100 µM (inactive) | > 100 | > 100 µM (inactive) | > 100 µM (inactive) | > 100 µM (inactive) | > 100 µM (inactive) | > 100 µM (inactive) | > 100 µM (inactive) | > 100 µM (inactive) | 45.6 µM (inactive) | > 100 µM (inactive) | > 100 µM (inactive) | > 100 µM (inactive) |
| CCCCCCCCCc1c(O)c(O)c(CCCCCCCCC)c(CCCCCCCCC)c1CCCCCCCCC | > 100 µM (inactive) | > 100 µM (inactive) | 37.9 µM (inactive) | > 100 µM (inactive) | > 100 µM (inactive) | > 100 µM (inactive) | > 100 µM (inactive) | > 100 µM (inactive) | > 100 | > 100 µM (inactive) | 96.8 µM (inactive) | > 100 µM (inactive) | > 100 µM (inactive) | > 100 µM (inactive) | > 100 µM (inactive) | > 100 µM (inactive) | > 100 µM (inactive) | 65.9 µM (inactive) | > 100 µM (inactive) | > 100 µM (inactive) |
| CN(C)/C=C/c1ccnc2c1C(=O)c1ccccc1C2=O | 23.4 µM (inactive) | 30.6 µM (inactive) | 3.74 µM (inactive) | 7.64 µM (inactive) | 9.66 µM (inactive) | 15.2 µM (inactive) | 12.9 µM (inactive) | 24.9 µM (inactive) | 3.34 | 16.3 µM (inactive) | 2.03 µM (inactive) | 17.2 µM (inactive) | > 92.7 µM (inactive) | 2.35 µM (inactive) | 15.6 µM (inactive) | 3.65 µM (inactive) | 5.89 µM (inactive) | 2.45 µM (inactive) | 12.2 µM (inactive) | 15.5 µM (inactive) |
| Nc1nc(SCc2ccccc2[N+](=O)[O-])c2[nH]cnc2n1 | 62.2 µM (inactive) | 39.4 µM (inactive) | > 70.8 µM (inactive) | > 41.5 µM (inactive) | > 57.7 µM (inactive) | > 61.9 µM (inactive) | > 100 µM (inactive) | > 45 µM (inactive) | > 56.5 | 38.7 µM (inactive) | > 30.6 µM (inactive) | > 65.2 µM (inactive) | > 34.8 µM (inactive) | > 40.2 µM (inactive) | > 69.5 µM (inactive) | 26.7 µM (inactive) | > 83.2 µM (inactive) | > 55.2 µM (inactive) | > 38 µM (inactive) | > 52.8 µM (inactive) |
| Oc1c2ccccc2c2c3c(cccc13)N=N2 [SP-600125] | 31.9 µM (inactive) | 65.3 µM (inactive) | 15.3 µM (inactive) | 9.62 µM (inactive) | 2.62 µM (inactive) | 23.1 µM (inactive) | 32.2 µM (inactive) | 19.5 µM (inactive) | 8.04 | 3.56 µM (inactive) | 16.4 µM (inactive) | 27.1 µM (inactive) | 5.93 µM (inactive) | 9.86 µM (inactive) | 69.3 µM (inactive) | 29 µM (inactive) | 50 µM (inactive) | 48.6 µM (inactive) | 11.4 µM (inactive) | 22 µM (inactive) |
